Columns and labels:
MPK6 [1] = target: T1, MPK6 (Arabidopsis thaliana, UniProt Q39026); assay: biochemical; design: isothermal titration calorimetry, 25 °C, PBS pH 7.4, 2% DMSO
T1 construct: MPK6ΔNt (29 to 305)

MPK6 [2] = target: T1, MPK6; assay: biochemical; design: biolayer interferometry (Octet Red96), GST-tagged protein on probe, 25 °C, 1:1 model; details: read-out: kon (M^-1s^-1)
MPK6 [3] = target: T1, MPK6; assay: biochemical; design: biolayer interferometry (Octet Red96), GST-tagged protein on probe, 25 °C, 1:1 model; details: read-out: koff (s^-1)
MPK6 [4] = target: T1, MPK6; assay: BLI and ITC with recombinant MPK6; also in vitro kinase inhibition; format: binding
[5] = target: CA-MPK6 (constitutively active MPK6) (Arabidopsis thaliana, UniProt Q39026, D218G/E222A); assay: biochemical; format: binding
CA-MPK6 (constitutively active MPK6), sequence (Q39026 29-305 D218G/E222A limits assumed): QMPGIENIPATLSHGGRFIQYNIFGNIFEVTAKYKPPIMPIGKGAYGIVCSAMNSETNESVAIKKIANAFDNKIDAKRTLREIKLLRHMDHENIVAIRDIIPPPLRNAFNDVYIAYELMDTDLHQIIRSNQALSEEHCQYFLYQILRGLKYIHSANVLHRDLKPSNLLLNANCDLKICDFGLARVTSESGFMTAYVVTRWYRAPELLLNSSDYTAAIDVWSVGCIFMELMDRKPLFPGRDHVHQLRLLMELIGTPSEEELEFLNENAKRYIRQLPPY

T1 sequence (Q39026 29-305): as the sequence (Q39026 29-305 D218G/E222A limits assumed) above, with G190D, A194E counted along it

Row | Compound | Kd (MPK6 [1]) [µM] | kon (MPK6 [2]) [M⁻¹ s⁻¹] | koff (MPK6 [3]) [s⁻¹] | Kd (MPK6 [4]) [µM] | Kd [5] [µM]
1 | Nc1ncnc2c1ncn2[C@@H]1O[C@H](COP(=O)(O)OP(=O)(O)OP(=O)(O)O)[C@@H](O)[C@H]1O [ATP] | 1.2 ± 0.3 | 8920 | 0.0125 | – | –
2 | O=P(O)(O)C(O)c1ccc2ccccc2c1 (stereo not shown) [compound 2, hydroxy-2-naphthalenymethylphosphonic acid] | – | 3020 | 0.0175 | 4.9 ± 0.6 | 58 ± 13
